Key:
Assay in all cases: TMT LC-MSMS of 11-labelled proteins
Format in all cases: cell-based
[1] = target: glyceraldehyde-3-phosphate dehydrogenase (GAPDH) (Homo sapiens, UniProt P04406)
[2] = target: T1, prenylcysteine oxidase 1 (PCYOX1) (Homo sapiens, UniProt Q9UHG3)
T1 sequence (Q9UHG3 28-505): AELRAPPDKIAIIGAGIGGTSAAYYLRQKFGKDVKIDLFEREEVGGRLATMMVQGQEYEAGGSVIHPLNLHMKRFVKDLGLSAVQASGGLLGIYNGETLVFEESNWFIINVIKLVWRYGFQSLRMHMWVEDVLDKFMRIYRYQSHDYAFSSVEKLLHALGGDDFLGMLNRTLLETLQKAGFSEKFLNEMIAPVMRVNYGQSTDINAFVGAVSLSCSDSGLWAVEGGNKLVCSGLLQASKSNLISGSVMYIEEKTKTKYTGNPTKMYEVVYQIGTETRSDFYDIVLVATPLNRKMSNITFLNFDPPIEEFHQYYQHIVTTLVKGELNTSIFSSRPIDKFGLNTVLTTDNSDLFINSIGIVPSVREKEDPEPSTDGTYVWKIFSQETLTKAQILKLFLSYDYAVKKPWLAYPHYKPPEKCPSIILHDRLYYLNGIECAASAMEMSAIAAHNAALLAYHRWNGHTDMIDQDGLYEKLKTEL

[3] = target: Protein disulfide-isomerase (P4HB) (Homo sapiens, UniProt P07237)
Protein disulfide-isomerase (P4HB), sequence (P07237 18-508): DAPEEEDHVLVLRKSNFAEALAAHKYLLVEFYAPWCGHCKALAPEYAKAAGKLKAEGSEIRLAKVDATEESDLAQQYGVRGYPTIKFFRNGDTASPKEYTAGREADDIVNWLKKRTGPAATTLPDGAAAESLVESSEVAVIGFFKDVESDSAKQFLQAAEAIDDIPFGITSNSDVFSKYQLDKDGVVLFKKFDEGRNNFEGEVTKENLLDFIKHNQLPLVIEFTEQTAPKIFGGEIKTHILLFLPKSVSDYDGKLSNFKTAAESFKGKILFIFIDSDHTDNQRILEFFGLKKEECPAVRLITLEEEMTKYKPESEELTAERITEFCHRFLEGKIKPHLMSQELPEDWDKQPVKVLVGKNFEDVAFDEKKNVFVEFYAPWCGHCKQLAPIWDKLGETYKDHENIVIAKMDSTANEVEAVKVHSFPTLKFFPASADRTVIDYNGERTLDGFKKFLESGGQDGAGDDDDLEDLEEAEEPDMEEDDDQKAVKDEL

[4] = sheet Exp1, SKBR3 cells, 11 0.5 µM 3 h vs DMSO
[5] = sheet Exp1, SKBR3 cells, 11 0.5 µM 3 h vs with PU-H71 10 µM
[6] = sheet Merged, SKBR3 cells, 11 0.5 µM 3 h vs DMSO
[7] = sheet Merged, SKBR3 cells, 11 0.5 µM 3 h vs with PU-H71 10 µM

glyceraldehyde-3-phosphate dehydrogenase (GAPDH), sequence (P04406 whole entry): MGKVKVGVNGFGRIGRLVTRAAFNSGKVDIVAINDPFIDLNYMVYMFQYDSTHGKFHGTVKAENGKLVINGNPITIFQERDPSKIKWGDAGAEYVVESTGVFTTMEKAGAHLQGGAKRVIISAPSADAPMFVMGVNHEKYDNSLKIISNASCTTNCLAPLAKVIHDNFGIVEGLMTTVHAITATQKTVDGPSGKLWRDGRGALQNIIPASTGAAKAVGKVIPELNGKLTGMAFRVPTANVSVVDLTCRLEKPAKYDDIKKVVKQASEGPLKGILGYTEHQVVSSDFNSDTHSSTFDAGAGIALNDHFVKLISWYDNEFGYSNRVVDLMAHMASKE

With CC(=O)Oc1ccc2c(c1)Oc1cc(OC(C)=O)ccc1C21OC(=O)c2cc(C(=O)NCCOCCOCCNC(=O)CCCC(=O)N(CC#N)S(=O)(=O)c3ccc(C(=O)NCCCn4c(Sc5cc6c(cc5I)OCO6)nc5c(N)ncnc54)cc3)ccc21 [compound 11] the “Abundance Ratio: (11) / (11 with PU-H71)” value ([1]; Exp3, GAPDH) was 0.73, the “Abundance Ratio: (11) / (DMSO)” value ([1]; Exp3, GAPDH) was 1.944 and the “Abundances (Grouped): 11” value ([1]; Exp3, GAPDH) was 248.2. The “Abundances (Grouped): 11 with PU-H71” value ([1]; Exp3, GAPDH) was 340, the “Abundance Ratio: (11) / (DMSO)” value [1, 4] was 2.11 and the “Abundance Ratio: (11) / (11 with PU-H71)” value [1, 5] was 0.674. The “Abundance Ratio: (11) / (11 with PU-H71)” value ([1]; sheet Exp2, GAPDH) was 0.789, the “Abundance Ratio: (11) / (DMSO)” value ([1]; sheet Exp2, GAPDH) was 3.189 and the “Abundances (Grouped): 11” value ([1]; sheet Exp2, GAPDH) was 133. The “Abundances (Grouped): 11 with PU-H71” value ([1]; sheet Exp2, GAPDH) was 168.6, the “Abundance Ratio: (11) / (DMSO)” value [1, 6] was 2.267 and the “Abundance Ratio: (11) / (11 with PU-H71)” value [1, 7] was 0.732. For the same compound, the “Abundance Ratio: (11) / (11 with PU-H71)” value ([2]; Exp3, PCYOX1) was 0.713, the “Abundance Ratio: (11) / (DMSO)” value ([2]; Exp3, PCYOX1) was 1.251 and the “Abundances (Grouped): 11” value ([2]; Exp3, PCYOX1) was 54.9. For the same compound, the “Abundances (Grouped): 11 with PU-H71” value ([2]; Exp3, PCYOX1, with PU-H71) was 77, the “Abundance Ratio: (11) / (DMSO)” value [2, 4] was 1.831 and the “Abundance Ratio: (11) / (11 with PU-H71)” value [2, 5] was 0.86. For the same compound, the “Abundance Ratio: (11) / (DMSO)” value [2, 6] was 1.513, the “Abundance Ratio: (11) / (11 with PU-H71)” value [2, 7] was 0.783 and the “Abundance Ratio: (11) / (11 with PU-H71)” value ([3]; Exp3, P4HB) was 0.934. For the same compound, the “Abundance Ratio: (11) / (DMSO)” value ([3]; Exp3, P4HB) was 3.442, the “Abundances (Grouped): 11” value ([3]; Exp3, P4HB) was 191.7 and the “Abundances (Grouped): 11 with PU-H71” value ([3]; Exp3, P4HB) was 205.3. The “Abundance Ratio: (11) / (DMSO)” value [3, 4] was 2.885, the “Abundance Ratio: (11) / (11 with PU-H71)” value [3, 5] was 0.887 and the “Abundance Ratio: (11) / (11 with PU-H71)” value ([3]; sheet Exp2, P4HB) was 0.87. The “Abundance Ratio: (11) / (DMSO)” value ([3]; sheet Exp2, P4HB) was 2.206, the “Abundances (Grouped): 11” value ([3]; sheet Exp2, P4HB) was 186 and the “Abundances (Grouped): 11 with PU-H71” value ([3]; sheet Exp2, P4HB) was 213.9. For the same compound, the “Abundance Ratio: (11) / (DMSO)” value [3, 6] was 2.274 and the “Abundance Ratio: (11) / (11 with PU-H71)” value [3, 7] was 0.896.

From paper PMC5951806, “Rapid labelling and covalent inhibition of intracellular native proteins using ligand-directed N-acyl-N-alkyl sulfonamide” (Nature Communications, 2018)
